# Where a SMILES comes first, the peptide text is derived from it. Bridges are numbered along the chain shown (N, C = ends). [ ]: non-standard residue; d: D form. The star is where a group is joined. hPhe(3-Cl-4-CF3) = N[C@@H](CCc1ccc(C(F)(F)F)c(Cl)c1)C(=O)O; NPrPhe(4-CF3) = CCCN[C@@H](Cc1ccc(C(F)(F)F)cc1)C(=O)O; Abu(4,4,4-F3) = N[C@@H](CC(F)(F)F)C(=O)O; NMeGly(cPent) = CN[C@H](C(=O)O)C1CCCC1; NMeD = CN[C@@H](CC(=O)O)C(=O)O; NMeL = CN[C@@H](CC(C)C)C(=O)O; Morpholide = C1CN(*)CCO1; NMeA = CN[C@@H](C)C(=O)O; Ac5c = NC1(C(=O)O)CCCC1; Aze = O=C(O)[C@@H]1CCN1; Abu = CC[C@H](N)C(=O)O; Sar = CNCC(=O)O
# Assays:
# [1] = biological target: GDP-bound HRAS wild-type protein (Homo sapiens, UniProt P01112); test: Binding to HRAS by surface plasmon resonance (SPR), Single Cycle Kinetics; settings: for HRAS/KRAS (ratio of KD value for HRAS to KD value for KRAS) / HRAS/KRAS (ratio of KD value with respect to HRAS to KD value with respect to KRAS): GDP-bound HRAS wild-type vs GDP-bound KRAS wild-type
# [2] = biological target: GDP-bound NRAS wild-type protein (Homo sapiens, UniProt P01111); test: Binding to NRAS by surface plasmon resonance (SPR), Single Cycle Kinetics; settings: for NRAS/KRAS (ratio of KD value for NRAS to KD value for KRAS) / NRAS/KRAS (ratio of KD value with respect to NRAS to KD value with respect to KRAS): GDP-bound NRAS wild-type vs GDP-bound KRAS wild-type
# [3] = SPR, GDP-bound wild-type proteins
# Chain of GDP-bound HRAS wild-type protein (P01112 whole entry): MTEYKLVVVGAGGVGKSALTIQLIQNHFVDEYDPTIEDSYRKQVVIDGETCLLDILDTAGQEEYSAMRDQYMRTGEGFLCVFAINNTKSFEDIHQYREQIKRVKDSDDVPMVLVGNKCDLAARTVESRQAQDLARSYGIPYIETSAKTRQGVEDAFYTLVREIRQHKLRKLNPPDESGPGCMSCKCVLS
# Chain of GDP-bound NRAS wild-type protein (P01111 whole entry): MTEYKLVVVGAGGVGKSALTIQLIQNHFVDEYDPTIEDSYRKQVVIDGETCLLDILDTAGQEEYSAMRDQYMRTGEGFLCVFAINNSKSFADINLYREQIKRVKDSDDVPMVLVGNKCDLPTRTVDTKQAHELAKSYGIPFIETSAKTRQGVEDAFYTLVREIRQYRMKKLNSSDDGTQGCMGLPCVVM
compound,measurement,setting,value
CCC[C@H]1C(=O)N[C@@H]([C@@H](C)CC)C(=O)N(C)CC(=O)N(C)[C@H]2C/C=C\CCN(C2=O)[C@@H](Cc2ccc(C(F)(F)F)cc2)C(=O)N(C)CC(=O)N[C@@H](CCc2cc(F)c(C(F)F)c(F)c2)C(=O)N2C[C@H](OCC)C[C@H]2C(=O)NC2(CC(C)(C)C2)C(=O)N(C)[C@@H](C2CCCC2)C(=O)N(C)[C@H](C(=O)N(C)C)CC(=O)N1C [PP2780],HRAS/KRAS (ratio of KD value with respect to GDP-bound HRAS wild-type protein to KD value with respect to KRAS),[1]; class symbols,A (a compound having 10 or more and less than 20 is denoted as A)
same,NRAS/KRAS (ratio of KD value with respect to GDP-bound NRAS wild-type protein to KD value with respect to KRAS),[2]; class symbols,A (a compound having 10 or more and less than 20 is denoted as A)
CCO[C@@H]1C[C@H]2C(=O)NC3(CC(F)(F)C3)C(=O)N(C)[C@@H](C3CCCC3)C(=O)N(C)[C@H](C(=O)N(C)C)CC(=O)N(C)[C@@H](CC3CCC3)C(=O)N[C@@H]([C@@H](C)CC)C(=O)N(C)CC(=O)N(C)[C@H]3C/C=C\CCN(C3=O)[C@@H](Cc3ccc(C(F)(F)F)cc3)C(=O)N(C)CC(=O)N[C@@H](CCc3cc(F)c(C(F)(F)F)c(F)c3)C(=O)N2C1 [PP1742],HRAS/KRAS (ratio of KD value for HRAS to KD value for KRAS),"[1]; KD ratio, SPR",A (a compound having 10 or more and less than 20 is denoted as A)
same,NRAS/KRAS (ratio of KD value for NRAS to KD value for KRAS),"[2]; KD ratio, SPR",A (a compound having 10 or more and less than 20 is denoted as A)
"CCCN1C(=O)[C@@H]2CCN2C(=O)[C@H](C)N(C)C(=O)[C@H](CC(F)(F)F)NC(=O)[C@H](CC(C)C)N(C)C(=O)C[C@@H](C(=O)N2CCOCC2)N(C)C(=O)[C@H](C2CCCC2)N(C)C(=O)C2(CCCC2)NC(=O)[C@@H]2CCCN2C(=O)[C@H](CCc2ccc(C(F)(F)F)c(Cl)c2)NC(=O)CN(C)C(=O)[C@@H]1Cc1ccc(C(F)(F)F)cc1 [PP0270] ([NMeL][Abu(4,4,4-F3)][NMeA][Aze][NPrPhe(4-CF3)][Sar][hPhe(3-Cl-4-CF3)]P[Ac5c][NMeGly(cPent)][NMeD]-Morpholide; lactam N-11)",HRAS/KRAS (ratio of KD for GDP-bound HRAS wild-type to KD for KRAS),[1]; SPR,B (a compound having 3 or more and less than 10 is denoted as B)
same,NRAS/KRAS (ratio of KD for GDP-bound NRAS wild-type to KD for KRAS),[2]; SPR,C (A compound having a KD ratio of 0.1 or more and less than 3 is denoted as C)
C#CCN1CC(=O)N(C)[C@H]2C/C=C\CCN(C2=O)[C@@H](Cc2ccc(C)cc2)C(=O)N(C)CC(=O)N[C@@H](CCc2ccc(C(F)(F)F)c(OC)c2)C(=O)N2C[C@H](OCC)C[C@H]2C(=O)NC2(CC(C)(C)C2)C(=O)N(C)[C@@H](C2CCCC2)C(=O)N(C)[C@H](C(=O)N(C)C)CC(=O)N(C)[C@@H](CCC)C(=O)N[C@@H](CC(C)C)C1=O [PP2514],HRAS/KRAS (ratio of KD value with respect to HRAS to KD value with respect to KRAS),[1]; SPR,B (a compound having 3 or more and less than 10 is denoted as B)
same,NRAS/KRAS (ratio of KD value with respect to NRAS to KD value with respect to KRAS),[2]; SPR,A (a compound having 10 or more and less than 20 is denoted as A)
CCO[C@@H]1C[C@H]2C(=O)NC3(CC(C)(C)C3)C(=O)N(C)[C@@H](C(CC)CC)C(=O)N(C)[C@H](C(=O)N(C)C)CC(=O)N(C)[C@@H](CC(C)C)C(=O)N[C@@H]([C@@H](C)CC)C(=O)N(C)CC(=O)N(C)[C@H]3C/C=C\CCN(C3=O)[C@@H](Cc3ccc(C(F)(F)F)cc3)C(=O)N(C)CC(=O)N[C@@H](CCc3cc(F)c(C(F)(F)F)c(F)c3)C(=O)N2C1 [PP2127],HRAS/KRAS (ratio of KD value with respect to HRAS to KD value with respect to KRAS),[1]; SPR,A (a compound having 10 or more and less than 20 is denoted as A)
same,NRAS/KRAS (ratio of KD value with respect to NRAS to KD value with respect to KRAS),[2]; SPR,AA (a compound having 20 or more is denoted as AA)
CCCN1C(=O)CN(C)C(=O)[C@@H]2CCN2C(=O)[C@H](CC)NC(=O)[C@H](CC(C)C)N(C)C(=O)C[C@@H](C(=O)N2CCOCC2)N(C)C(=O)[C@H](C2CCCC2)N(C)C(=O)C2(CCCC2)NC(=O)[C@@H]2CCCN2C(=O)[C@H](CCc2ccc(C(F)(F)F)c(Cl)c2)NC(=O)CN(C)C(=O)[C@@H]1Cc1ccc(C(F)(F)F)cc1 [PP0303] ([NMeL][Abu][Aze][Sar][NPrPhe(4-CF3)][Sar][hPhe(3-Cl-4-CF3)]P[Ac5c][NMeGly(cPent)][NMeD]-Morpholide; lactam N-11),HRAS/KRAS (ratio of KD for GDP-bound HRAS wild-type to KD for KRAS),[1]; SPR,B (a compound having 3 or more and less than 10 is denoted as B)
same,NRAS/KRAS (ratio of KD for GDP-bound NRAS wild-type to KD for KRAS),[2]; SPR,B (a compound having 3 or more and less than 10 is denoted as B)
C#CC[C@H]1C(=O)N[C@@H]([C@@H](C)CC)C(=O)N(C)CC(=O)N(C)[C@H]2C/C=C\CCN(C2=O)[C@@H](Cc2ccc(C(F)(F)F)cc2)C(=O)N(C)CC(=O)N[C@@H](CCc2ccc(C(F)(F)F)c(OC)c2)C(=O)N2C[C@@H](C)C[C@H]2C(=O)NC2(CC(C)(C)C2)C(=O)N(C)[C@@H](C2CCCC2)C(=O)N(C)[C@H](C(=O)N(C)CCC)CC(=O)N1C [PP2057],HRAS/KRAS (ratio of KD value with respect to HRAS to KD value with respect to KRAS),[1]; SPR,A (a compound having 10 or more and less than 20 is denoted as A)
same,NRAS/KRAS (ratio of KD value with respect to NRAS to KD value with respect to KRAS),[2]; SPR,A (a compound having 10 or more and less than 20 is denoted as A)
CCO[C@@H]1C[C@H]2C(=O)NC3(CCC3)C(=O)N(C)[C@@H](C3CCCC3)C(=O)N(C)[C@H](C(=O)N3CCOCC3)CC(=O)N(C)[C@@H](C)C(=O)N[C@@H]([C@@H](C)CC)C(=O)N(C)CC(=O)N(C)[C@H]3CCCCCN(C3=O)[C@@H](Cc3ccc(F)cc3)C(=O)N(C)CC(=O)N[C@@H](CCc3cc(F)c(C(F)(F)F)c(F)c3)C(=O)N2C1 [PP1175],HRAS/KRAS (ratio of KD value with respect to HRAS to KD value with respect to KRAS),"[1]; KD ratio, SPR",B (a compound having 3 or more and less than 10 is denoted as B)
same,NRAS/KRAS (ratio of KD value with respect to NRAS to KD value with respect to KRAS),"[2]; KD ratio, SPR",B (a compound having 3 or more and less than 10 is denoted as B)
CCO[C@@H]1C[C@H]2C(=O)N(C)C3(CC(C)(C)C3)C(=O)N(C)[C@@H](C3CCCC3)C(=O)N(C)[C@H](C(=O)N(C)C)CC(=O)N(C)[C@H]3CCC/C=C/c4ccc(cc4)C[C@@H](C(=O)N(C)CC(=O)N[C@@H](CCc4ccc(Cl)c(Cl)c4)C(=O)N2C1)N1CC/C=C\C[C@@H](C1=O)N(C)C(=O)CN(C1CC1)C(=O)[C@H]([C@@H](C)CC)NC3=O [PP3061],HRAS/KRAS (ratio of KD value with respect to GDP-bound HRAS wild-type protein to KD value with respect to KRAS),[1]; [3],A (a compound having 10 or more and less than 20 is denoted as A)
same,NRAS/KRAS (ratio of KD value with respect to GDP-bound NRAS wild-type protein to KD value with respect to KRAS),[2]; [3],A (a compound having 10 or more and less than 20 is denoted as A)
CCO[C@@H]1C[C@H]2C(=O)NC3(CCC3)C(=O)N(C)[C@@H](C3CCCC3)C(=O)N(C)[C@H](C(=O)N3CCOCC3)CC(=O)N(C)[C@@H](CC(C)C)C(=O)N[C@@H]([C@@H](C)CC)C(=O)N3CC[C@H]3C(=O)N(C)[C@H]3CC(C)=CCN(C3=O)[C@@H](Cc3ccc(C(F)(F)F)cc3)C(=O)N(C)CC(=O)N[C@@H](CCc3cc(F)c(C(F)(F)F)c(F)c3)C(=O)N2C1 [PP1040],HRAS/KRAS (ratio of KD value with respect to HRAS to KD value with respect to KRAS),"[1]; KD ratio, SPR",C (A compound having a KD ratio of 0.1 or more and less than 3 is denoted as C)
same,NRAS/KRAS (ratio of KD value with respect to NRAS to KD value with respect to KRAS),"[2]; KD ratio, SPR",C (A compound having a KD ratio of 0.1 or more and less than 3 is denoted as C)
CCC(CC)[C@H]1C(=O)N(C)[C@H](C(=O)N(C)C)CC(=O)N(C)[C@@H](COC)C(=O)N[C@@H]([C@@H](C)CC)C(=O)N(C2CC2)CC(=O)N(C)[C@H]2C/C=C\CCN(C2=O)[C@@H](CC2CCC(F)(F)CC2)C(=O)N(C)CC(=O)N[C@@H](CCc2cc(F)c(C(F)(F)F)c(F)c2)C(=O)N2C[C@H](OC3CCCC3)C[C@H]2C(=O)NC2(CC(C)(C)C2)C(=O)N1C [PP2627],HRAS/KRAS (ratio of KD value with respect to GDP-bound HRAS wild-type protein to KD value with respect to KRAS),[1]; class symbols,A (a compound having 10 or more and less than 20 is denoted as A)
same,NRAS/KRAS (ratio of KD value with respect to GDP-bound NRAS wild-type protein to KD value with respect to KRAS),[2]; class symbols,A (a compound having 10 or more and less than 20 is denoted as A)
CCCN(C)C(=O)[C@@H]1CC(=O)N(C)[C@@H](CC(F)F)C(=O)N[C@@H]([C@@H](C)CC)C(=O)N(C)CC(=O)N(C)[C@H]2C/C=C\CCN(C2=O)[C@@H](Cc2ccc(C(F)(F)F)cc2)C(=O)N(C)CC(=O)N[C@@H](CCc2ccc(C(F)(F)F)c(OC)c2)C(=O)N2C[C@H](OCC)C[C@H]2C(=O)NC2(CC(C)(C)C2)C(=O)N(C)[C@@H](C2CCCC2)C(=O)N1C [PP2010],HRAS/KRAS (ratio of KD value for HRAS to KD value for KRAS),"[1]; KD ratio, SPR",B (a compound having 3 or more and less than 10 is denoted as B)
same,NRAS/KRAS (ratio of KD value for NRAS to KD value for KRAS),"[2]; KD ratio, SPR",A (a compound having 10 or more and less than 20 is denoted as A)
CCO[C@@H]1C[C@H]2C(=O)N[C@@]3(C)CCCCCCC[C@@H](C(=O)N[C@@H]([C@@H](C)CC)C(=O)N(C)CC(=O)N(C)[C@H]4CCCCN(C4=O)[C@@H](Cc4ccc(C(F)(F)F)cc4)C(=O)N(C)CC(=O)N[C@@H](CCc4cc(F)c(C(F)(F)F)c(F)c4)C(=O)N2C1)N(C)C(=O)C[C@@H](C(=O)N1CCOCC1)N(C)C(=O)[C@H](C1CCCC1)N(C)C3=O [PP0993],HRAS/KRAS (ratio of KD value with respect to HRAS to KD value with respect to KRAS),"[1]; KD ratio, SPR",B (a compound having 3 or more and less than 10 is denoted as B)
same,NRAS/KRAS (ratio of KD value with respect to NRAS to KD value with respect to KRAS),"[2]; KD ratio, SPR",B (a compound having 3 or more and less than 10 is denoted as B)
CCCN(C)C(=O)[C@@H]1CC(=O)N(C)[C@@H](C2CC2)C(=O)N[C@@H]([C@@H](C)CC)C(=O)N(C)CC(=O)N(C)[C@H]2C/C=C\CCN(C2=O)[C@@H](Cc2ccc(C(F)(F)F)cc2)C(=O)N(C)CC(=O)N[C@@H](CCc2cc(F)c(C(F)(F)F)c(F)c2)C(=O)N2C[C@@H](C)C[C@H]2C(=O)NC2(CCC2)C(=O)N(C)[C@@H](C2CCCC2)C(=O)N1C [PP2081],HRAS/KRAS (ratio of KD value with respect to HRAS to KD value with respect to KRAS),[1]; SPR,A (a compound having 10 or more and less than 20 is denoted as A)
same,NRAS/KRAS (ratio of KD value with respect to NRAS to KD value with respect to KRAS),[2]; SPR,A (a compound having 10 or more and less than 20 is denoted as A)
